Assay results from patent US20100093653A1, “Use of 1,6-Bis [3-(3-carboxymethylphenyl)-4-(2-alpha-D-mannopyranosyl-oxy)-phenyl] hexane for the preparation of cosmetic compositions” (Revotar Biopharmaceuticals AG, priority 2006, published 2010).

Legend:
[1] = test system: photoageing of human skin; assay: Protective effect against photoaging of human skin, solar simulated UV radiation, immunohistology of biopsies; type: in vivo; settings: microemulsion of example 6, topical before 2 MED UV; buttock skin biopsies 24 hours after exposition; vehicle control skin showed it
Text: By using the microemulsion as described in example 6, the protective effect of FORM 1 of 1,6-Bis [3-(3-carboxymethylphenyl)-4-(2-α-D-mannopyranosyloxy)-phenyl]hexane (compound of formula (I)) against photoageing of human skin is investigated according to methods known to the skilled person. Two areas of buttock skin (each approximately 2×2 cm) of 10 healthy male white volunteers are exposed to erythematogenic doses (2 MED) of solar simulated UV radiation. Before radiation one area is topically treated with the formulation containing FORM 1 of compound of formula (I), the other with the formulation without FORM 1 of compound of formula (I) (vehicle control). 24 hours after exposition, biopsies are taken from both areas and as control from an area that is not exposed to radiation.

[2] = test system: isolated perfused porcine fore limb; assay: isolated perfused porcine fore limb transdermal penetration assay; type: in vitro ADME; settings: microemulsion of example 6; 5 h application time; LC/MS
Protocol: By using the microemulsion as described in example 6 skin penetration studies of FORM 1 of 1,6-Bis [3-(3-carboxymethylphenyl)-4-(2-α-D-mannopyranosyloxy)-phenyl]hexane employing an isolated perfused porcine fore limb transdermal penetration assay using pig porcine is performed according to the methods known to the skilled person. The isolated perfused porcine fore limb is an assay system, which retains intact anatomy and skin, muscle, blood vessel and bone morphology. The organ is kept vitalized by perfusion with a blood-based perfusion medium for up to 6 h. This system allows monitoring of transdermal, resorption, penetration or permeation of pharmaceuticals and cosmetics. 3 application sites are choosen and surrounded by Leukosilk. On each of these areas 10 μl of microemulsion are applied with a pipette and distributed with the pipette tip.
For three additional application sites, the cotton pads of three Hill Top chambers in total, are soaked and saturated with microemulsion and applied to skin. After 5 h application time Hill Top chambers are removed and the unabsorbed microemulsion from the free sites is removed with a dry swab each. 20 Tesa strips are collected from each of the six applications sites. […] Swabs, strips, skin biopsys are analysed for content of FORM 1 of 1,6-Bis [3-(3-carboxymethylphenyl)-4-(2-α-D-mannopyranosyloxy)-phenyl]hexane with LC/MS. […]

photoageing = assay: Protective effect against photoageing, chronic solar-simulated UV radiation; type: in vivo, hairless mice; settings: microemulsion of example 6, topical twice daily during 30 weeks UV-exposure; histology
Text: By using the microemulsion as described in example 6, the protective effect of FORM 1 of 1,6-Bis [3-(3-carboxymethylphenyl)-4-(2-α-D-mannopyranosyloxy)-phenyl]hexane (compound of formula (I)) against photoageing (hairless mice) is investigated according to methods known to the skilled person. Hairless mice are exposed to chronic solar-simulated UV radiation for 30 weeks.

[3] = test system: skin elasticity of the back; assay: Model of hormone induced skin ageing (menopause model, bilateral ovarectomy); type: in vivo, female hairless mice; settings: microemulsion of example 6 onto the back twice daily for two months after ovary removal; vehicle control animals showed the reduction
Text: By using the microemulsion as described in example 6, the effect of FORM 1 of 1,6-Bis [3-(3-carboxymethylphenyl)-4-(2-α-D-mannopyranosyloxy)-phenyl]hexane (compound of formula (I)) on hormone induced skin ageing is investigated employing a menopause model according to methods known to the skilled person. Five-week old female hairless mice are subjected to bilateral ovarectomy, and used as an animal model of menopause. For two months from immediately after ovary extraction, the formulation containing FORM 1 of compound of formula (I) is applied onto the back twice daily. As a control, the formulation without FORM 1 of compound of formula (I) is applied in a similar protocol (vehicle control). […] Two months after ovary removal, skin elasticity of the back is measured using a Cutometer (COURAGE KHAZAKSA).

porcine skin = assay: Franz diffusion cell penetration assay using porcine skin; type: in vitro ADME; settings: microemulsion of example 6; 10.4 μl on 1000 μm porcine skin; 8 h; 37° C.; LC/MS
Protocol: By using the microemulsion as described in example 6, skin penetration studies of FORM 1 of 1,6-Bis [3-(3-carboxymethylphenyl)-4-(2-α-D-mannopyranosyloxy)-phenyl]hexane in employing a Franz diffusion cell penetration assay using porcine skin is performed according to the methods known to the skilled person. Porcine skin samples (6 in total, 2 from each animal, 3 female animals in total), 1000 μm thick, with the stratum corneum facing up are placed onto the lower part of a Franz diffusion cell. The cell is rinsed with medium tempered to 37° C. to prevent the skin from drying out and the system is equilibrated for 30 minutes. 10.4 μl of microemulsion as described in example 6 is applied to the dry upper side of the epidermis using a pipette and the microemulsion is distributed with an inoculation loop. Medium is collected every hour.
After 8 h the experiment is finished. The skin is punched out and the surface of the skin is swabed to removed excess microemulsion. The dry surface is stripped 20 times using Tesafilm. Swabs, strips, medium and skin samples are analysed for content of FORM 1 of 1,6-Bis [3-(3-carboxymethylphenyl)-4-(2-α-D-mannopyranosyloxy)-phenyl]hexane by LC/MS. On average 4% of the applied amount of FORM 1 of 1,6-Bis [3-(3-carboxymethylphenyl)-4-(2-α-D-mannopyranosyloxy)-phenyl]hexane in the microemulsion as described in example 6 penetrates into skin.

wrinkles of crow's feet = assay: Anti-wrinkle efficacy, crow's feet skin replicas with image analysis; type: in vivo, healthy subjects; settings: microemulsion of example 6, twice a day for 28 days; treated vs untreated crow's feet; all subjects
Text: By using the microemulsion as described in example 6, the anti-wrinkle effect of FORM 1 of 1,6-Bis [3-(3-carboxymethylphenyl)-4-(2-α-D-mannopyranosyloxy)-phenyl]hexane (compound of formula (I)) is investigated according to methods known to the skilled person. 40 healthy subjects aged between 34 and 59 years, comprising 35 women and 5 men are selected. The formulation containing FORM 1 of the compound of formula (I), is applied twice a day, in the morning and in the evening, to one temporal zone of the face (crow's feet) for 28 days. The other zone remains untreated and serves as a control. An impression (skin replicas) is made from the control and treated zone at time 0 and after 28 days of treatment using SILFO impression material (Flexico, England).

Q: What does the source list for `O=C(O)Cc1cccc(-c2cc(CCCCCCc3ccc(O[C@H]4O[C@H](CO)[C@@H](O)[C@H](O)[C@@H]4O)c(-c4cccc(CC(=O)O)c4)c3)ccc2O[C@H]2O[C@H](CO)[C@@H](O)[C@H](O)[C@@H]2O)c1` [FORM 1 of compound of formula (I), 1,6-Bis [3-(3-carboxymethylphenyl)-4-(2-α-D-mannopyranosyloxy)-phenyl]hexane]?
A: matrix-metallo-proteinase-1 (MMP-1) [1]: This is not the case; matrix-metallo-proteinase-9 (MMP-9) [1]: This is not the case; strong infiltration of neutrophils [1]: This is not the case; applied amount that penetrates into skin (on average) [2]: 5%; degraded dermal collagen (photoageing): protected significantly; deposition of glycosamisnoglycans in the lower dermis (photoageing): protected significantly; dermal mast cell number (photoageing): protected significantly; epidermal hyperplasia (photoageing): protected significantly; focal elastotic deposits (photoageing): protected significantly; significantly reduced skin elasticity (Cutometer) as compared to normal animals [3]: This was not the case; applied amount that penetrates into skin (on average) (porcine skin): 4%; depth of wrinkles (wrinkles of crow's feet): significantly reduces; length of wrinkles (wrinkles of crow's feet): significantly reduces; number of wrinkles (wrinkles of crow's feet): significantly reduces
